The source of these data is ChEMBL document CHEMBL2401634, “Discovery of novel indolinone-based, potent, selective and brain penetrant inhibitors of LRRK2” (Bioorg Med Chem Lett, 2013).

The target of data set [1] is Vascular endothelial growth factor receptor 2 (Homo sapiens, UniProt P35968). Kind of data set: Inhibition of KDR (unknown origin).
Data set [2] concerns the target Proto-oncogene tyrosine-protein kinase receptor Ret (Homo sapiens, UniProt P07949). Kind of data set: Inhibition of RET (unknown origin).
Data set [3] has as its target ALK tyrosine kinase receptor (Homo sapiens, UniProt Q9UM73). Kind of data set: Inhibition of ALK (unknown origin).
Data set [4] concerns the target Platelet-derived growth factor receptor alpha (Homo sapiens, UniProt P16234). Kind of data set: Inhibition of PDGFRa (unknown origin).
Data set [5] has as its target Leucine-rich repeat serine/threonine-protein kinase 2 (Homo sapiens, UniProt Q5S007). Kind of data set: Inhibition of human LRRK2 (1885 to 2132) using 5-Fluo-Ahx-RLGRDKYKTLRQIRQGNTK-OH as substrate after 60 mins by fluorescence assay.
The target of data set [6] is Tyrosine-protein kinase Lck (Homo sapiens, UniProt P06239). Kind of data set: Inhibition of LCK (unknown origin).
Chain of Tyrosine-protein kinase Lck (P06239 whole entry): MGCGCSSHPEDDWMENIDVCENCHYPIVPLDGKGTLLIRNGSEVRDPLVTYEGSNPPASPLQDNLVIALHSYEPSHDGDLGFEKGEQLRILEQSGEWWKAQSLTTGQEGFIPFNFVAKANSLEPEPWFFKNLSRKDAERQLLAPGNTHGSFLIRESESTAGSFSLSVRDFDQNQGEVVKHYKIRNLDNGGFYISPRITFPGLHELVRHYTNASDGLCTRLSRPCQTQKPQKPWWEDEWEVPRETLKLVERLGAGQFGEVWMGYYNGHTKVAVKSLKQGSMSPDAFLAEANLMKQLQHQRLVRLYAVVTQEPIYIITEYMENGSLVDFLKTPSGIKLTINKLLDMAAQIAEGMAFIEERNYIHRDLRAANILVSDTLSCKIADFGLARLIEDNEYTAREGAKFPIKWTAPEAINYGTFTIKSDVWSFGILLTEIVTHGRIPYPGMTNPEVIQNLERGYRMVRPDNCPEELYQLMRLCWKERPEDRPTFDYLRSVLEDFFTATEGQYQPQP
Data set [7] relates to Mus musculus. Kind of data set: Binding affinity to LRRK2 in po dosed C57BL/6 mouse brain after 2 hrs by pull down assay. The data set is classed as functional, organism-based.
Data set [8] concerns the target Leucine-rich repeat serine/threonine-protein kinase 2 (Mus musculus) (UniProt Q5S006). Kind of data set: Binding affinity to LRRK2 in mouse C2C12 cells at 1 uM after 30 mins by competition pull down assay. The data set is classed as cell-based.
Data set [9] concerns Mus musculus. Kind of data set: Binding affinity to LRRK2 in C57BL/6 mouse brain at 10 to 180 mg/kg, po after 2 hrs by pull down assay relative to vehicle-treated control. The format is functional, organism-based.
The nature of data set [10]: Solubility of the compound at pH 6.8. The format is physicochemical. The following applies: buffer.
For data set [11], the system named is Mus musculus. Kind of data set: Binding affinity to LRRK2 in C57BL/6 mouse brain at 90 mg/kg, iv after 1 hr by pull down assay. The format is functional, organism-based. Details: dose 90 mg/kg.
The target of data set [12] is Leucine-rich repeat serine/threonine-protein kinase 2 (Mus musculus) (UniProt Q5S006). Kind of data set: Binding affinity to LRRK2 in C57BL/6 mouse brain at 1 uM after 30 mins by competition pull down assay. The format is tissue-based.

The structures appear in SMILES notation. pIC50: −log10 of the molar value. Converted amounts (≈) assume the structure as drawn. The source made the active and inactive calls. The rule behind the calls is not given here.

Chain of Leucine-rich repeat serine/threonine-protein kinase 2 (Q5S007 whole entry): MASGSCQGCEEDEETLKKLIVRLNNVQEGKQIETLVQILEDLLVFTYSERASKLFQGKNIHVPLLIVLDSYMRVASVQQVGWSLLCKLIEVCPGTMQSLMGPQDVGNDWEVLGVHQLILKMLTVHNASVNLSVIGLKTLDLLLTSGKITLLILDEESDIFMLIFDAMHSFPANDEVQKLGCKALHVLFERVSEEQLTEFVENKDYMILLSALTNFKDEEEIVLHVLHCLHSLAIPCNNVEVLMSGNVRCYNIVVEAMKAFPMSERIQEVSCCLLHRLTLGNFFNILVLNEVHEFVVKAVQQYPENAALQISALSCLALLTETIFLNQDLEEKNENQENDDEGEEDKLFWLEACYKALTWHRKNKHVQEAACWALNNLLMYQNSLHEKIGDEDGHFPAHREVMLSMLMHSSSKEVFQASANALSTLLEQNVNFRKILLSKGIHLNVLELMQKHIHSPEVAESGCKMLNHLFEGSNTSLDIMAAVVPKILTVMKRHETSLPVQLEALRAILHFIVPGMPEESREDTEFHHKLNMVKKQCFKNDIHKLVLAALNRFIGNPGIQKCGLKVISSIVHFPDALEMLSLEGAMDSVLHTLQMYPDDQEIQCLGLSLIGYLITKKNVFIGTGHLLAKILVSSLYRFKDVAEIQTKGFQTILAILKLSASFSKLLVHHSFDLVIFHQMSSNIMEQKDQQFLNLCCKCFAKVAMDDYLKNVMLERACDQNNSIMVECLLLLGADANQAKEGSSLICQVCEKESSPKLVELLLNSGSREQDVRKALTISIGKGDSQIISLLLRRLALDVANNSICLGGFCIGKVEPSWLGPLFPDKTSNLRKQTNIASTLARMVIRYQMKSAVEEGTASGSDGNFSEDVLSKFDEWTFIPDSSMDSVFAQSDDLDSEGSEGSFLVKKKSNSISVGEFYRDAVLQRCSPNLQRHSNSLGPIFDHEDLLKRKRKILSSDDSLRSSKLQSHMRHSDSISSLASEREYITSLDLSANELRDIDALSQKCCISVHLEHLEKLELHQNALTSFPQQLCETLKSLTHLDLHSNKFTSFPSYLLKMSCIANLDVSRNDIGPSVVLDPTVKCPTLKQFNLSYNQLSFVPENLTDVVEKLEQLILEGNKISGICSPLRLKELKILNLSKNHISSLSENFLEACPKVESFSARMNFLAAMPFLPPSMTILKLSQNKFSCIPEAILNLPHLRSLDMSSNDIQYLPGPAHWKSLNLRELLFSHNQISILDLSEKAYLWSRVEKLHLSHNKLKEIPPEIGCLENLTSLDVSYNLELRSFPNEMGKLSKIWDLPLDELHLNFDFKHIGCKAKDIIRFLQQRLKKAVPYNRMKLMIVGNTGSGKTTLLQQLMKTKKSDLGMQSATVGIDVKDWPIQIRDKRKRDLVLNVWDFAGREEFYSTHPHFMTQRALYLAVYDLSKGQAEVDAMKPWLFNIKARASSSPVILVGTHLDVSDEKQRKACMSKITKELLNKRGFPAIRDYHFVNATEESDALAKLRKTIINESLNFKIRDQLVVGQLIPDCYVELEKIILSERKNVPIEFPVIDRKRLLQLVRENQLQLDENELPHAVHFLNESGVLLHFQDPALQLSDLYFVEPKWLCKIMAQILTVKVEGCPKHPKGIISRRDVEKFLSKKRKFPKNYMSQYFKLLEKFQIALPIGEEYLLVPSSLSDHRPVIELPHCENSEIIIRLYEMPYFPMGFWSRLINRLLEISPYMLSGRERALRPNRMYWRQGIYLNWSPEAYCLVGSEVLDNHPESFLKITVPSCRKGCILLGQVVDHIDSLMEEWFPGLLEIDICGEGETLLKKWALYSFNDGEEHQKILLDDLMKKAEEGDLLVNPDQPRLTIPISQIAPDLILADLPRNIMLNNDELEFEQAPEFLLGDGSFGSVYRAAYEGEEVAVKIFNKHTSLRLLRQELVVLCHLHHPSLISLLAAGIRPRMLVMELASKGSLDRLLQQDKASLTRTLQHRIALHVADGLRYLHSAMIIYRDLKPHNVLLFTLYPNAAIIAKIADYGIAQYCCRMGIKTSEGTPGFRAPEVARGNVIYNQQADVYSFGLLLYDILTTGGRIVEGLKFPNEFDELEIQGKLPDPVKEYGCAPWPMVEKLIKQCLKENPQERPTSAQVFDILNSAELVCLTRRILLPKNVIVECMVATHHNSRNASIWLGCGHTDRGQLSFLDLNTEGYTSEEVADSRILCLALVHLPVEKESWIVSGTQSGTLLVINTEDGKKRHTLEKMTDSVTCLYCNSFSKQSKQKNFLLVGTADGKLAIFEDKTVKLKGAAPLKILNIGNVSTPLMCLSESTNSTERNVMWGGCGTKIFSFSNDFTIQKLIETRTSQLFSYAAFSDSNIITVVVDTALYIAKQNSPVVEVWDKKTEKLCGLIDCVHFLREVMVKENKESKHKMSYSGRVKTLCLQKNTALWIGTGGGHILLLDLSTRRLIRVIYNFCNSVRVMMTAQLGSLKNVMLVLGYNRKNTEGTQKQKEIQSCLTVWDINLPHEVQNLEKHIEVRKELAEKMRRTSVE
Chain of ALK tyrosine kinase receptor (Q9UM73 whole entry): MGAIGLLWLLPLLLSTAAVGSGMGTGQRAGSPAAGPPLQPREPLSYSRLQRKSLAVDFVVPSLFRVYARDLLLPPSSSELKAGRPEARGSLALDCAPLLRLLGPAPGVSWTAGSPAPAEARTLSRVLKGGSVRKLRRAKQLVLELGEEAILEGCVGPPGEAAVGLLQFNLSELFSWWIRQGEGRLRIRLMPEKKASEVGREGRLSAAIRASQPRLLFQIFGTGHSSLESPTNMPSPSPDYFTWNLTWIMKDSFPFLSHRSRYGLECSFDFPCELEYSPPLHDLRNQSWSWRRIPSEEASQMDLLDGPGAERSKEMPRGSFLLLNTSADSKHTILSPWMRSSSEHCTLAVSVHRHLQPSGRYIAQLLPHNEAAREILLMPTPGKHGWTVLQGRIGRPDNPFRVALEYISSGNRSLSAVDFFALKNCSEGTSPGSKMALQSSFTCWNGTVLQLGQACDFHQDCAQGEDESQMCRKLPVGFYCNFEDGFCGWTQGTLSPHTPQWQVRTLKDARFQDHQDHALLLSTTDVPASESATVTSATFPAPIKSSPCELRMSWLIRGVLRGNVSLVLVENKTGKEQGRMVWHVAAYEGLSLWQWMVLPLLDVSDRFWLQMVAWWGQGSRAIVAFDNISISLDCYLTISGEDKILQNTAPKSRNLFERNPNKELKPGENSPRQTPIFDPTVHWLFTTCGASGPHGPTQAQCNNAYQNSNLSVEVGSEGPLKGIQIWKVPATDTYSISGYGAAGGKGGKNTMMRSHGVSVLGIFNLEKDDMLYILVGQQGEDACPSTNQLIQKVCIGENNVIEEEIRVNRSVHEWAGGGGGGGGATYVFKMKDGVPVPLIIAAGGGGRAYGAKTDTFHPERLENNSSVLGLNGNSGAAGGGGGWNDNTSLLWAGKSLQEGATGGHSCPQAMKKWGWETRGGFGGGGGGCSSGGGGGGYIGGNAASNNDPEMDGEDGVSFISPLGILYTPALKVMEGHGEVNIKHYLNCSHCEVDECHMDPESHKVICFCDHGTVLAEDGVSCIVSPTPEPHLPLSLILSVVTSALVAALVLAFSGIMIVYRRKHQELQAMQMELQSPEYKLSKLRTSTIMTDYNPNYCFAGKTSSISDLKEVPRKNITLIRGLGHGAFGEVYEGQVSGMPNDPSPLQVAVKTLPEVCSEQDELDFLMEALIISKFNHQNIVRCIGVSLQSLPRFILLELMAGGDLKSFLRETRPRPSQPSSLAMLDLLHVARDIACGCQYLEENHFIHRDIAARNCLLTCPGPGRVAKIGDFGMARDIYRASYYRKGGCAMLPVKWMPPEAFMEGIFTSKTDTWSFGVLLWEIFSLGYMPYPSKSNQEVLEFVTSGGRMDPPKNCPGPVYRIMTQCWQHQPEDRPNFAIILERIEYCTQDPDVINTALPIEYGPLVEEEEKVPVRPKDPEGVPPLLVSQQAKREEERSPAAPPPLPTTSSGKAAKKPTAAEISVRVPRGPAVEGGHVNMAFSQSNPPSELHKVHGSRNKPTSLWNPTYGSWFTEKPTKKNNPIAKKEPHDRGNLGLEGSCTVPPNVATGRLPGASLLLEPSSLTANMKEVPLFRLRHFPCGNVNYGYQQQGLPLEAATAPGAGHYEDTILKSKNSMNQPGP

Usually pIC50 stands for the IC50 on a negative log10 scale, so that one unit is a factor of ten. The low end stands for a large IC50, the high end for a small IC50. For `COc1ccc2c(c1)/C(=C/c1cc3c([nH]1)CCN(C(C)=O)C3)C(=O)N2`, the pIC50 in data set [1] was 6.68; in data set [2], 7.27; in [3], 5.82; in data set [4], 6.60; in [5] it was 7.85; in data set [6] it was 5.22.

In general, solubility refers to the dissolved amount per volume that the medium holds. Low readings indicate a poorly soluble substance, high ones a readily soluble substance. Regarding `COc1ccc2c(c1)/C(=C/c1cc3c([nH]1)CCN(C(=O)N1CCN(C)CC1)C3)C(=O)N2`, the pIC50 in [1] is 8.22; in [2], 8.22; in data set [3], 6.26; in data set [4] it was 7.22; in data set [5] it was 8.05; in [6], 7.30. Moreover, the Activity entry with Mus musculus [7] was “Dose-dependent effect”. The outcome (in [8]; with Mus musculus [9]; in [12]) was Active. Also, the solubility in [10] was determined as 15 µg/mL (≈ 35.6 µM). Further, the result in the data set with Mus musculus [11] was inactive.

With `CC(=O)N1CCc2[nH]c(/C=C3\C(=O)Nc4ccc(OC(C)C)cc43)cc2C1`, the pIC50 in [1] is 6.05; in [2], 6.82; in [3], 5.48; in data set [4] it was 5.77; in [5] it was 8.40; in data set [6] it was 5.96. This compound had a solubility in [10] of less than 1 µg/mL.

For the compound `O=C1Nc2ccc(C(F)(F)F)cc2/C1=C/c1cc2c([nH]1)CCN(C(=O)N1CCOCC1)C2`, the pIC50 in data set [1] was 7.08; in data set [2], 6.85; in data set [3], less than 5.00; in [4], 7.34; in data set [5], more than 8.52; in [6] it was 6.74.

`CN1CCC(Nc2ccc3c(c2)/C(=C/c2cc4c([nH]2)CCN(C(=O)N2CCOCC2)C4)C(=O)N3)CC1`: the pIC50 was 8.52 in data set [1]; 8.30 in data set [2]; 7.12 in data set [3]; 7.89 in data set [4]; more than 8.52 in [5]; 8.15 in [6].

Regarding `COc1ccc2c(c1)/C(=C/c1[nH]c3c(c1Cl)CN(C(C)=O)CC3)C(=O)N2`, the pIC50 is 7.06 in data set [1]; 7.47 in data set [2]; less than 5.00 in data set [3]; 8.10 in [5]; 5.96 in data set [6].

As for `COc1ccc2c(c1)/C(=C/c1cc3c([nH]1)CCN(C(=O)N1CCOCC1)C3)C(=O)N2`, the pIC50 in data set [1] was 8.30; in [2] it was 7.60; in data set [3], 6.18; in data set [4] it was 6.82; in [5], 8.52; in data set [6], 6.92.

Consider `COc1ccc2c(c1)/C(=C/c1[nH]c(C)c(C(=O)NCCCN)c1C)C(=O)N2`, for which the pIC50 in data set [1] is more than 6.00; in [2] it was more than 6.00; in data set [3], more than 6.00; in data set [4], more than 6.00; in data set [5], 7.34; in data set [6], more than 6.00.

In the case of `COc1ccc2c(c1)/C(=C/c1cc3c([nH]1)CCN(C(=O)CCN)C3)C(=O)N2`, the pIC50 in [1] is 8.10; in data set [2], 8.40; in data set [3], 6.43; in data set [4] it was 6.92; in data set [5], 7.96; in [6] it was 6.85.

In the case of `CC(=O)N1CCc2[nH]c(/C=C3\C(=O)Nc4ccc(C(F)(F)F)cc43)cc2C1`, the pIC50 in data set [1] was 6.49; in data set [2], 6.52; in [3] it was 5.02; in [4], 7.22; in data set [5] it was 7.51; in data set [6], 6.44.

On to `CC(=O)Nc1ccc2c(c1)/C(=C/c1cc3c([nH]1)CCN(C(=O)N1CCOCC1)C3)C(=O)N2`, for which the pIC50 in data set [1] is 8.15; in data set [2], 7.60; in data set [3], 6.68; in [4] it was 7.04; in [5] it was 8.40; in [6] it was 6.48.

For the compound `COc1ccc2c(c1)/C(=C/c1cc3c([nH]1)CCN(C(=O)N1CCOCC1)C3)C(=O)N2C`, in [5], the pIC50 is 6.82.

With `CC(=O)N1CCc2[nH]c(/C=C3\C(=O)Nc4ccc(C#N)cc43)cc2C1`, the pIC50 in data set [1] is 7.70; in [2] it was 8.40; in data set [3], 5.80; in data set [4] it was more than 8.52; in [5], 8.15; in data set [6], 6.92.

In the case of `CC(=O)N1CCc2[nH]c(/C=C3\C(=O)Nc4ccc([N+](=O)[O-])cc43)cc2C1`, the pIC50 in data set [1] was 7.22; in [2] it was 7.14; in [3], less than 5.00; in data set [4] it was 7.51; in [5] it was more than 8.52; in [6] it was 6.00.

Regarding `COc1ccc2c(c1)/C(=C/c1cc3c([nH]1)CCN(C(=O)c1cnoc1C)C3)C(=O)N2`, the negative-log IC50 (pIC50) in data set [1] was 7.80; in data set [2] it was 7.12; in data set [3], 5.85; in [4], 6.27; in [5] it was 8.15; in data set [6], 6.41.
